The values that follow come from ChEMBL document CHEMBL1201862, “PubChem BioAssay data set” (2004).

Active and inactive are the calls of the source. A value given as a limit tells only on which side of the number the result lay.

In one assay the target is T1, Leucine aminopeptidase (Plasmodium falciparum 3D7, UniProt Q8IL11).
T1 sequence (Q8IL11 whole entry): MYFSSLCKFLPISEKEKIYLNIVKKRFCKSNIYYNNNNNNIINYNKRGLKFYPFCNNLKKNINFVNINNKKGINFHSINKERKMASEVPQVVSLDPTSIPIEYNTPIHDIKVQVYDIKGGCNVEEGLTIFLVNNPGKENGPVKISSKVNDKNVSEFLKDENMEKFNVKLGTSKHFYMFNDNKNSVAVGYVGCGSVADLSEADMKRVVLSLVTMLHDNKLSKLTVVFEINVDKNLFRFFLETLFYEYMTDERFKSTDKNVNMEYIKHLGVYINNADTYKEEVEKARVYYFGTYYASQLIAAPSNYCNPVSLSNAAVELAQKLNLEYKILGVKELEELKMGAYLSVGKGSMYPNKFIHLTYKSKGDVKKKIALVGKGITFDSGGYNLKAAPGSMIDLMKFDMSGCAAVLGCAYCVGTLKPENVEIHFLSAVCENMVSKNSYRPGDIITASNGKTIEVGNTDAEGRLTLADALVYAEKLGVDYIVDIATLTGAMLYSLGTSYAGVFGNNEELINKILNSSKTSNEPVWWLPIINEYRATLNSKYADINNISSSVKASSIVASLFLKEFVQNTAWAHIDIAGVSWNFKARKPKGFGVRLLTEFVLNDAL
Briefly: P. falciparum M17LAP inhibitors, primary screen, biochemical, fluorogenic H-Leu-NHMec substrate, 1536-well (AID 1619). The format is functional.

The target of the next assay is Procathepsin L (Homo sapiens, UniProt P07711). Nature of the assay: CTSL1 protease inhibition – biochemical, QFRET, 1536-well, counter-screen for M1/M17 aminopeptidase inhibitor project, dose response (AID 2214). For orientation: Counterscreens check selectivity or assay interference.
A further assay concerns the target T2, Aspartyl aminopeptidase (Plasmodium falciparum 3D7, UniProt Q8I2J3).
T2 sequence (Q8I2J3 whole entry): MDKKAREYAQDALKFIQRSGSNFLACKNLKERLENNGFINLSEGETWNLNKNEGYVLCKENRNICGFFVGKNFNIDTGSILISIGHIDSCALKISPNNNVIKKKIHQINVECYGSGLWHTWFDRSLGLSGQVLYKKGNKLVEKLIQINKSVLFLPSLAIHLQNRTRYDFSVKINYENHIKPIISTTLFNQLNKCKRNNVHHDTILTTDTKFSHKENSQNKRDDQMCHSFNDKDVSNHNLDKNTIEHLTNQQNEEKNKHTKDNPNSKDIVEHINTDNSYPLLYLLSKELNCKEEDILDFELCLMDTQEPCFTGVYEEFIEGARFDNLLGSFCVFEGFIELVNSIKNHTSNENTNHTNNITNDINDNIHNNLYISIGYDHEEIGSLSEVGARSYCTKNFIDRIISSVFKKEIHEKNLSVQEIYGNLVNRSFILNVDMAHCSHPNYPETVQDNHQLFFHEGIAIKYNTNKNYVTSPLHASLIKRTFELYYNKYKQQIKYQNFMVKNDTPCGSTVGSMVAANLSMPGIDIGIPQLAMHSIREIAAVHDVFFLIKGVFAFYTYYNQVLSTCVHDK
Nature of the assay: Counterscreen for inhibitors of M1 and M17 aminopeptidases: QFRET-based biochemical high throughput dose response assay for inhibitors of the Plasmodium falciparum M18 Aspartyl Aminopeptidase (PFM18AAP). [Related PubChem assays: 1619 (Screening assay (M17LAP inhibitors).), 1445 (Screening assay (M1AAP inhibitors).)].

The target in the next assay is fMet-Leu-Phe receptor (Homo sapiens, UniProt P21462). Nature of the assay: formyl peptide receptor binders – dose response (AID 519). The format is functional.
Assay [1] addresses 5-hydroxytryptamine receptor 1A (Homo sapiens, UniProt P08908). The format is functional.
The target of the next assay is T3, Protein Tat (Human immunodeficiency virus type 1 group M subtype B (isolate HXB2)(HIV-1), UniProt P04608).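 Note: tat binding to TAR RNA read out by fluorescence polarization.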
T3 sequence (P04608 whole entry): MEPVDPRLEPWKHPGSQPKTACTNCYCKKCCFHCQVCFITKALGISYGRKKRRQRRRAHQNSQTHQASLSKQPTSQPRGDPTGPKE
The format is functional.

In assay [2] the target is Induced myeloid leukemia cell differentiation protein Mcl-1 (Homo sapiens, UniProt Q07820). Briefly: blockers of MCL1 binding to BIM peptide – biochemical, fluorescence polarization, BIM-BH3 peptide, 1536-well, dose response (AID 2217). In general terms: In fluorescence polarisation assays a small probe gives low polarisation when free and higher when bound to something large.

A further assay concerns the target Bcl-2-like protein 1 (Homo sapiens, UniProt Q07817). Nature of the assay: blockers of BCLXL peptide binding – biochemical, fluorescence polarization, 1536-well, selectivity assay for MCL1 inhibitor project, dose response (AID 2218).
The target in assay [3] is T4, Carboxy-terminal domain RNA polymerase II polypeptide A small phosphatase 1 (Homo sapiens, UniProt Q9GZU7).
T4 sequence (Q9GZU7 whole entry): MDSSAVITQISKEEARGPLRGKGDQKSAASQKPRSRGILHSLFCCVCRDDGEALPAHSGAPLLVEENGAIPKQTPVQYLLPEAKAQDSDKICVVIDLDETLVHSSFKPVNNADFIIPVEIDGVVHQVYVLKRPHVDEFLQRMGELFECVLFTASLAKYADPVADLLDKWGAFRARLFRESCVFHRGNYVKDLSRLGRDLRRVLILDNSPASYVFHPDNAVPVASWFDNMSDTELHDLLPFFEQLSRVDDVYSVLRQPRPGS
Briefly: CTDSP1 inhibitors, concentration-response, biochemical, absorbance readout, ultra-high-throughput screen actives (AID 540297). The format is functional.

For assay [4], the target named is T5, Microphthalmia-associated transcription factor (Homo sapiens, UniProt O75030).
T5 sequence (O75030 whole entry): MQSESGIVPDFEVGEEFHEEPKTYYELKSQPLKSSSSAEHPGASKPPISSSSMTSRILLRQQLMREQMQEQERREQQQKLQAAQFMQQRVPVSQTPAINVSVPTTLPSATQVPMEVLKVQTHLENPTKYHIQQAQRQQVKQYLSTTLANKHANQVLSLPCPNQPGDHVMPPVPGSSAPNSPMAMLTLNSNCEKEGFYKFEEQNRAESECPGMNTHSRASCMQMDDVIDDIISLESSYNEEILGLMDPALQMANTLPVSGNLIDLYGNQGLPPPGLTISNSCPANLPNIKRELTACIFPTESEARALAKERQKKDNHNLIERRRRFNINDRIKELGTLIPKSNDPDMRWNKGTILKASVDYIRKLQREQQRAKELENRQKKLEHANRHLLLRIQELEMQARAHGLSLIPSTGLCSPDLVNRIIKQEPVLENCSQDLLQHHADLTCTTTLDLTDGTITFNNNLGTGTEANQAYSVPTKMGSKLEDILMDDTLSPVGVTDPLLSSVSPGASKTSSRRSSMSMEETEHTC
Nature of the assay: reducers of TRPM1 reporter luminescence, concentration series – cell-based, SK-MEL-5, cherry-picked, set 3, MITF inhibitor project, dose response (AID 493073).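 Note: SK-MEL-5 melanoma cells with luciferase driven by the MITF target TRPM1 promoter.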 The format is functional.

Another assay has as its target Beta-galactosidase (Escherichia coli, UniProt Q8VNN2). Briefly: detection-enzyme interference by beta-gal modulators – biochemical, E. coli enzyme, set 3, artefact control for CCR6 antagonist project, dose response (AID 504712). The format is functional.
Assay [5] in a line: viability of PTEN-deleted HCT116 cells – cell-based, HCT116 PTEN knockout, dose response (AID 1047).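 Note: HCT116 colon tumor cells with PTEN knocked out; cells exposed to compound for 60 hours before readout; potency for loss of cell viability measured by luminescence.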 The format is functional.
The target of assay [6] is Serine/threonine-protein phosphatase PP1-alpha catalytic subunit (Homo sapiens, UniProt P62136). Briefly: inhibition of protein phosphatase 1 activity – biochemical, fluorescence, dose response (AID 2394).
In assay [7] the target is T6, Heat shock factor protein 1 (Mus musculus, UniProt P38532).
T6 sequence (P38532 whole entry): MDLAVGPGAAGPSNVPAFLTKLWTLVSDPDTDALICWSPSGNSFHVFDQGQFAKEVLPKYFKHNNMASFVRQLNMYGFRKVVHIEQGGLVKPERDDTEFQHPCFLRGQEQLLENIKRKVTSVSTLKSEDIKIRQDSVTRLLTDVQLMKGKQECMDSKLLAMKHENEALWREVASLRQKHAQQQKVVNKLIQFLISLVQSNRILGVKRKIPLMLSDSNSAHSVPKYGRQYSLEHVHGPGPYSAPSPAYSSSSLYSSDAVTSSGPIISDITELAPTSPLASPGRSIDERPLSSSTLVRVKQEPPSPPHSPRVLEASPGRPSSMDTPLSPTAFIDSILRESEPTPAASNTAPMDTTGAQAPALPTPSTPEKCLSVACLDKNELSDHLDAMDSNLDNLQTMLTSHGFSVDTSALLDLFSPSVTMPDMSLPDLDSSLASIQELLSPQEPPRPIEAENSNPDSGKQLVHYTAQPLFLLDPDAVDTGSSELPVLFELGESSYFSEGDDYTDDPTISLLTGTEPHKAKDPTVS
Nature of the assay: enhancement of HSF1-driven luciferase signal – cell-based, NIH3T3, luminescence, dose retest, confirmation (AID 435004).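 Note: stress induced by proteasome inhibitor MG132 added 30 min after compound; luciferase reporter driven by HSF1 response element in NIH3T3 cells; actives raise luminescence as potentiators of the MG132 stress response.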 The format is functional.

Assay [8] addresses Serine/threonine-protein phosphatase (Homo sapiens, UniProt Q9BPW0). Briefly: inhibition of protein phosphatase 5 activity – biochemical, fluorescence, dose response (AID 2395).
The next assay has as its system A-375. Briefly: proliferation inhibition in MITF-low A375 cells – cell-based, cherry-pick samples, set 2, counter-screen for MITF modulator project, dose response (AID 540335). Particulars: Homo sapiens. The format is functional.
Assay [9] is described as follows: viability of HCT116 lacking mutant beta-catenin – cell-based, human colon tumor, dose response (AID 1045).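 Note: HCT116 colon tumor cells with beta catenin knocked out; cells exposed to compound for 60 hours.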 The format is functional.
Another assay concerns the target NADPH oxidase 1 (Homo sapiens, UniProt Q9Y5S8). The format is functional, cell-based.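 Note: Cell-based assay with luminescence read-out, IC50 derived from inhibitor dose-response curves; intracellular ROS from endogenous NOX1 in intact HT29 colon cancer cells; potency of inhibitors that lower the ROS luminescence signal.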
Assay [10] has as its target Voltage-gated inwardly rectifying potassium channel KCNH2 (Homo sapiens, UniProt Q12809). Nature of the assay: concentration-dependent hERG rescue from blockers – cell-based, thallium flux, dose response (AID 2121). The format is ADME. Background: Block of hERG is tested as a sign of cardiac risk.

Sequence of Bcl-2-like protein 1 (Q07817 whole entry, the tested form may be a part): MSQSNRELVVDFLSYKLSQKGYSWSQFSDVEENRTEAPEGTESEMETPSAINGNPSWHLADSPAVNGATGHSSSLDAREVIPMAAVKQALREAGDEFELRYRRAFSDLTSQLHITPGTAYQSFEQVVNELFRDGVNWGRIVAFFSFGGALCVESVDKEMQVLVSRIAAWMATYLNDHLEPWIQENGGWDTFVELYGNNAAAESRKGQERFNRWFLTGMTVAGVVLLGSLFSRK
Sequence of Serine/threonine-protein phosphatase PP1-alpha catalytic subunit (P62136 whole entry): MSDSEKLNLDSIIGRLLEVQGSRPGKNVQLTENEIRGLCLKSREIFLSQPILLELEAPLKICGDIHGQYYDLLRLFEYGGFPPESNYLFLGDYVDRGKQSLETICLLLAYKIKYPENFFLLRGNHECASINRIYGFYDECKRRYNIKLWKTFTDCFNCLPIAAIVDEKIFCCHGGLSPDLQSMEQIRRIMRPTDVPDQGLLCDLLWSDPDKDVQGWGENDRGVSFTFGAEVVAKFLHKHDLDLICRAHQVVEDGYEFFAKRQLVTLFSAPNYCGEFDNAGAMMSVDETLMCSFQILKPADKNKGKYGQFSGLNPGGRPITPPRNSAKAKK
Sequence of Voltage-gated inwardly rectifying potassium channel KCNH2 (Q12809 whole entry): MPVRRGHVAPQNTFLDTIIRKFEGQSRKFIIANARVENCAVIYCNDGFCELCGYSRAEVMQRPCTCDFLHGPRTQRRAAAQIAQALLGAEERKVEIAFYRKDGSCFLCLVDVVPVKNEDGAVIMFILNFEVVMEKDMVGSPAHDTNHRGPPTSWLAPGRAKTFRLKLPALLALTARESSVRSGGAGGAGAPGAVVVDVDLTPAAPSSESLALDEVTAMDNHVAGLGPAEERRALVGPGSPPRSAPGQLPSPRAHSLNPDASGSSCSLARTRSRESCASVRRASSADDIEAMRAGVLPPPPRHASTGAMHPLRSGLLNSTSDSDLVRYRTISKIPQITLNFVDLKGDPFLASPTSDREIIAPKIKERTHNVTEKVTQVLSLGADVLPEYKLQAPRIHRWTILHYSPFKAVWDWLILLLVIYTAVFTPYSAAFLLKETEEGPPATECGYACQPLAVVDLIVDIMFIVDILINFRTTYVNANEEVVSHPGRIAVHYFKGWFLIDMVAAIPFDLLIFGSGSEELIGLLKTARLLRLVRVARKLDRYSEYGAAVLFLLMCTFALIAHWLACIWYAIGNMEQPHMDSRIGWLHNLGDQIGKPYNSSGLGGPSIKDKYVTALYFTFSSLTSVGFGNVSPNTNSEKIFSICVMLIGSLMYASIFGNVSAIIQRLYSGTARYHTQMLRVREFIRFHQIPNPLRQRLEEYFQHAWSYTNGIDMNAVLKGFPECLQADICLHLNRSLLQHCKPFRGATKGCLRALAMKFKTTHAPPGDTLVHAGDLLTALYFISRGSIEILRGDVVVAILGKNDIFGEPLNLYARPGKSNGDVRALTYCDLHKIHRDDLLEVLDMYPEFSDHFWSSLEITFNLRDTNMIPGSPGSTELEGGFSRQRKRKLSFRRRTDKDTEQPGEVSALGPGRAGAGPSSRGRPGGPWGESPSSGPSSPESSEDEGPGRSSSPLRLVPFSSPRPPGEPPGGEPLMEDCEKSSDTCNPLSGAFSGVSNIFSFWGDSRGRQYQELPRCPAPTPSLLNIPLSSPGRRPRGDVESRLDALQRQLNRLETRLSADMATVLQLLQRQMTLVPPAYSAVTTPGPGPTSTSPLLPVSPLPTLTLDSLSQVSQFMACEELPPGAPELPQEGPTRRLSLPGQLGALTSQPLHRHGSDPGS
Sequence of 5-hydroxytryptamine receptor 1A (P08908 whole entry): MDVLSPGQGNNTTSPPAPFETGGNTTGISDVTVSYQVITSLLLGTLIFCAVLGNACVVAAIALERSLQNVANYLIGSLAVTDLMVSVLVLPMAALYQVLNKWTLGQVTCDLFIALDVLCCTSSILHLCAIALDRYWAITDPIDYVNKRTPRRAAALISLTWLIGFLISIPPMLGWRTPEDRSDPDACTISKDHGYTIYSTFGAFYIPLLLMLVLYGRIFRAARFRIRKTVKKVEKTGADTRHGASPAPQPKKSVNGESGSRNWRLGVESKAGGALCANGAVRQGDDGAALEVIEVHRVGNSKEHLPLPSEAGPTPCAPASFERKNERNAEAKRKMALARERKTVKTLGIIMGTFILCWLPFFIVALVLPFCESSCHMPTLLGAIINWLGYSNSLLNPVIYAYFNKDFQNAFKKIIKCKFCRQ
Sequence of fMet-Leu-Phe receptor (P21462 whole entry): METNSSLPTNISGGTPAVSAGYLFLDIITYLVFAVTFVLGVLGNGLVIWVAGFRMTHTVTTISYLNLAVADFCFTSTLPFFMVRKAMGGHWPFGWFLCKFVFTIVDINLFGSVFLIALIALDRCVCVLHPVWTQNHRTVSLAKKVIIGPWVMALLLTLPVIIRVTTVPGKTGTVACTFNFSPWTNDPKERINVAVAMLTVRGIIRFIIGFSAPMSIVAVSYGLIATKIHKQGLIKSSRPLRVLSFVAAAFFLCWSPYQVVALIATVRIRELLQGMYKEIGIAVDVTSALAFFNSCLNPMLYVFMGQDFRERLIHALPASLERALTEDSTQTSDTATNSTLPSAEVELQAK
Sequence of Induced myeloid leukemia cell differentiation protein Mcl-1 (Q07820 whole entry): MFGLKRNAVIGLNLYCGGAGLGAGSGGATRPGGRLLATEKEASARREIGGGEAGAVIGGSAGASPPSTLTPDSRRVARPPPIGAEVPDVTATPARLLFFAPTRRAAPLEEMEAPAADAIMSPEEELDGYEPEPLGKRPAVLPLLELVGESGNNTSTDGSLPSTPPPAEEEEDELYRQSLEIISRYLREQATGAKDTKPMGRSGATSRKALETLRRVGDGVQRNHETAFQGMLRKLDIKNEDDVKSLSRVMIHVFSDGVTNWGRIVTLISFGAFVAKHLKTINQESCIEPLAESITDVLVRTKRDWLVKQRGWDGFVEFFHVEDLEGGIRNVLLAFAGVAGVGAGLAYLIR
Sequence of Beta-galactosidase (Q8VNN2 whole entry): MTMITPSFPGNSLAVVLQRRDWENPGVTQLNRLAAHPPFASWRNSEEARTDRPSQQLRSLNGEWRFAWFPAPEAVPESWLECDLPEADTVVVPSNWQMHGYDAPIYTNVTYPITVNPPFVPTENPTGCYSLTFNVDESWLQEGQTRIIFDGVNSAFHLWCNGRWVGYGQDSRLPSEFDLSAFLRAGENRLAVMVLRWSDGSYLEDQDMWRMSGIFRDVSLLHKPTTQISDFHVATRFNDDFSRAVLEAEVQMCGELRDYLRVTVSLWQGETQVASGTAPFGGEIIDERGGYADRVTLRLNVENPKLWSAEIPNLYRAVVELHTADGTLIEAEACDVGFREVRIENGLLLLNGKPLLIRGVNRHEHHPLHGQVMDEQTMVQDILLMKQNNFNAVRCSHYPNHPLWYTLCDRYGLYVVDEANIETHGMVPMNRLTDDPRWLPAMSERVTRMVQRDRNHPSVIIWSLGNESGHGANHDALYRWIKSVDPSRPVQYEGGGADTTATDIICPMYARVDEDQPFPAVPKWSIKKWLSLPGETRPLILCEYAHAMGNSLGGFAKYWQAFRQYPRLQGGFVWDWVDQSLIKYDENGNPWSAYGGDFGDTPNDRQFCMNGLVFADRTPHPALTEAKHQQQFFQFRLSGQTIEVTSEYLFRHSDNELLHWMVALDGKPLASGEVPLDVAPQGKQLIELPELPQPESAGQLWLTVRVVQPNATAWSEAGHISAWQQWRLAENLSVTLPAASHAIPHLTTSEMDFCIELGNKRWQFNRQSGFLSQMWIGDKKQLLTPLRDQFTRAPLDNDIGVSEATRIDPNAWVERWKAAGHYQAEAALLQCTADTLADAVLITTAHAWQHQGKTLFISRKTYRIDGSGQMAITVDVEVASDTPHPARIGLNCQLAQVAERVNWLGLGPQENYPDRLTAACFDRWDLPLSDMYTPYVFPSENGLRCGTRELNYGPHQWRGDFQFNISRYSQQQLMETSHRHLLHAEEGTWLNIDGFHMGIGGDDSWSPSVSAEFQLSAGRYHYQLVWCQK
Sequence of Serine/threonine-protein phosphatase (Q9BPW0 whole entry): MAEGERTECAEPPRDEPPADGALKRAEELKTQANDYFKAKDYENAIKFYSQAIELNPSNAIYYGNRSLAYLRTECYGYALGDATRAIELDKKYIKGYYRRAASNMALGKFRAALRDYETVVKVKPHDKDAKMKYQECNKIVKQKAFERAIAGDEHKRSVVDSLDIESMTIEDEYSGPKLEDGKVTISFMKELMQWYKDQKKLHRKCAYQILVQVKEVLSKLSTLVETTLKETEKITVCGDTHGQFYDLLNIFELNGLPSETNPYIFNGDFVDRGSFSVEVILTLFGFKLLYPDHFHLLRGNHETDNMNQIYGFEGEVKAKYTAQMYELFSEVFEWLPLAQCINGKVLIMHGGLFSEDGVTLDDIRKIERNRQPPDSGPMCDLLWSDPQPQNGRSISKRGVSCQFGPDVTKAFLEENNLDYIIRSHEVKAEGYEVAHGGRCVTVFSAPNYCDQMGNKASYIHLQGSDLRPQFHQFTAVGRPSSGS
Sequence of Procathepsin L (P07711 whole entry): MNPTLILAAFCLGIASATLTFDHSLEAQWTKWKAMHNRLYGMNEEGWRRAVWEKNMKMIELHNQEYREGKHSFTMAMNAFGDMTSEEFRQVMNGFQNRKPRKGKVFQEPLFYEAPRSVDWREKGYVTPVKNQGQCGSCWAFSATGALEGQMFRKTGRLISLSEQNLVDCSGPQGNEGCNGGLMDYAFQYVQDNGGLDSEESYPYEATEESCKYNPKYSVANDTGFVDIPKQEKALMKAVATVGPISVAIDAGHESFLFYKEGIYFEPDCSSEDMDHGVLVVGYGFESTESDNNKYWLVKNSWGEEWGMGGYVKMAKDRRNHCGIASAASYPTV

A word on the IC50: it is the midpoint of a concentration-inhibition curve. One may read the Ki as the dissociation constant of the complex between target and ligand, obtained from inhibition or displacement. Regarding `CCOC(=O)c1c(NC(=O)C2C3CCC(O3)C2C(=O)O)sc(C)c1-c1ccc(C)cc1` (centres undefined), the values for the IC50 on Leucine aminopeptidase, at Procathepsin L and against Aspartyl aminopeptidase were 6.69 µM (active), > 59.6 µM (not active) and > 73.5 µM (not active), respectively. In addition, the Ki on fMet-Leu-Phe receptor is 63.3 µM (inactive).

The EC50 is the concentration that produces a half-maximal response. On to `CCOC(=O)C1=C(C)NC(=O)NC1c1ccc(OCC(=O)Nc2ccccc2)c(OC)c1` (centres undefined), for which the EC50 in [1] is recorded as > 50 µM (not active).

For `Cc1ccc(NC(=O)c2cc(-c3ccc(C)o3)nc3ccccc23)nc1`, the IC50 on Protein Tat was > 100 µM (active); in assay [2] it was > 109 µM (not active); on Bcl-2-like protein 1, > 109 µM (not active); in [3], 4.78 µM (active).

What is called AC50 is the midpoint of the concentration-response curve, whichever way the signal moves. Regarding `O=C1C(Cl)=C(N2CCN(c3ccccc3[N+](=O)[O-])CC2)C(=O)c2ccccc21`, the AC50 in assay [4] was 3.59 µM (active); in the assay with A-375 it was 15.6 µM (active). Further, the IC50 on Beta-galactosidase is > 66.6 µM (inactive); in [6], > 67 µM (not active); in assay [8], 29.5 µM (not active). Also, the 50% effective concentration (EC50) is 5.82 µM (active) in [5], 0.734 µM (inconclusive) in assay [7] and 4.51 µM (active) in [9].

As to `COc1cc(-c2nc3c4ccccc4c4ccccc4c3[nH]2)ccc1O`, the 50% inhibitory concentration (IC50) on NADPH oxidase 1 was 1.15 µM (active).

`O=C(NC(=S)NCCc1ccccc1)c1cccc(Cl)c1`: the half-maximal effective concentration (EC50) in assay [10] is 3.5 µM (active).
